Laboratory results as given in US20170127677A1, “Formulation of clomazone having reduced volatility” (BASF SE, priority 2014, published 2017).

Experiment: Volatility of clomazone from spray solution: glass tube at 25° C. with air suction, loss determined by GC
Type: physicochemical
Settings: 24 h; for reduction of volatility of Clomazone by compound (B): Test experiment 5, clomazone WP 100 g/ha, component B 335 g/ha
Method: However, a preferred method for determining the volatility of the compounds contained in the compositions according to the present invention is carried out as follows: Glass tubes (internal diameter 23 mm) are immersed in a water bath at 25° C. In the bottom of each of the glass tubes 100 μl of spray solution (component A and B diluted in water at the concentration that a farmer would typically spray) are applied with a pipette. A tube is inserted in the glass tube. The ending of the inserted tube stays 25 mm above the bottom of the glass tube (i.e. the test sample). Along the inserted tube, the air contained in each individual glass tube is constantly suctioned at 250 L/h for the whole system. All glass tubes are separated from the lid by spacers which ensure the inlet of fresh air to the glass tubes. After short time the test sample is evaporated. The system is stopped according to a defined sampling period, preferably after 24 hours. The glass tubes are taken out and washed with THF. The washing solution is analyzed by GC for the compound of interest, e.g. clomazone. The loss of compound is calculated in % of the total amount of compound applied in the initial 100 μl sample. The reference test samples for the quantification of the initial applied Clomazone contain also THF. Each value is generated from 3 to 4 independent measurements. This method allows determining the relative volatility of a certain compound depending on the additional compounds present in a certain composition.
Non-encapsulated Clomazone (as WP formulation) was prepared at 100 g/ha with 200 L water/ha. Paraffinic oil, rapeseed oil methyl ester and the aromatic solvent were added at 335 g/ha, while Dimethenamid was added at 500 g/ha. For the solvents, an appropriate emulsifier system was added. The sample size was 100 μl. The volatility test was carried out at 25° C. and the operating time was 24 h.
Solvents typically used in crop protection agents were tested for comparative purposes. As comparison dimethenamid (dimethenamid P) was also tested, but differently from example 1, the test sample solution was prepared at 335 g/ha.CE3 was included again. Two controls were included in the experiment. For the solvents, an appropriate emulsifier system was added. The volatility test was carried out at 25° C., the operating time was 24 h. The sample size was 100 μl.
Various fatty acid amides were tested as additional components in herbicidal compositions with respect to the question if volatility of clomazone in such compositions is affected. For the solvents, an appropriate emulsifier system was added. The volatility test was carried out at 25° C. the operating time was 24 h. The sample size was 100 μl. […]

SMILES	reduction of volatility of Clomazone by compound (B)	effect on volatility of clomazone in the composition (Test experiment 1, clomazone WP 100 g/ha, dimethenamid 500 g/ha, solvents 335 g/ha)	effect on volatility of clomazone in herbicidal compositions (Test experiment 2, clomazone 100 g/ha, dimethenamid or solvent 335 g/ha)
CCc1cccc(C)c1N(C(=O)CCl)C(C)COC (racemic) [Metolachlor, (RS)-2-ethyl-6-methyl-N-(1′-methyl-2′-methoxyethyl)-chloracetanilid]	support the claimed reduction of volatility of Clomazone		
COCC(C)N(C(=O)CCl)c1c(C)csc1C (stereo not shown) [Dimethenamid, R,S-2-Chloro-N-(2,4-dimethyl-3-thienyl)-N-(2-methoxy-1-methylethyl)acetamide]		significantly reduces the volatility of clomazone	significantly reduce the volatility of clomazone
CCC(CC)Nc1c([N+](=O)[O-])cc(C)c(C)c1[N+](=O)[O-] [Pendimethalin, N-(1-ethylpropyl)-3,4-dimethyl-2,6-dinitrophenylamine]	support the claimed reduction of volatility of Clomazone		
